Measurements as given in patent US8791132B2, “Compounds and methods for treatment of hypertension” (Medivation Technologies, Inc., priority 2011, dated 2014).
Several values for one entry are separate records, joined by “and”; a condition that tells them apart may be missing. Equal entries are not always repeated. Where two headings read alike, the source gives them in different places. Each block holds one compound with its values, some of them ahead of it.

What was measured:
[1] = target: T1, human recombinant adrenergic α2A receptor (Homo sapiens, UniProt P08913); test: Radioligand binding, adrenergic α2A ([3H]MK-912); conditions: for Percentage inhibition of ligand binding, Adrenergic α2A / Percentage inhibition of ligand binding, Adrenergic α2A (0.1 μM): 0.1 µM
T1 construct: expressed in transfected cells; host or cells: insect Sf9 cells
T1 sequence (P08913 1-465): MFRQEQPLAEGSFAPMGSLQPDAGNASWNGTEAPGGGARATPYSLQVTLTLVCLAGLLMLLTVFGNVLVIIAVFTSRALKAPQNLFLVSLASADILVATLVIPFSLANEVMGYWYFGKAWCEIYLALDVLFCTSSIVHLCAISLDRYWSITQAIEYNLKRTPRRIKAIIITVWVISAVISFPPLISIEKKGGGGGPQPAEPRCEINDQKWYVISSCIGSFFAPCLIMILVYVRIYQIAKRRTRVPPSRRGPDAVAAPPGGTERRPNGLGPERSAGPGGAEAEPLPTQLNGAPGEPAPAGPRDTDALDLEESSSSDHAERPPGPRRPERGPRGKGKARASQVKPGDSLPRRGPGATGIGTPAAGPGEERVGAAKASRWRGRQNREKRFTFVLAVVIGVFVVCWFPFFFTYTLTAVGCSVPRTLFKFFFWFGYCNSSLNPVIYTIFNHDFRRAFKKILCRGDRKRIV
Procedure, shortened: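 Displacement of 1 nM [3H]MK-912 from receptor produced in insect Sf9 cells was measured after 60 min at 25 °C. Readout: percent inhibition of specific binding.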

[2] = target: T2, rat adrenergic α1B receptor (Rattus norvegicus, UniProt P15823); test: Radioligand binding, adrenergic α1B ([3H]Prazosin); conditions: for Percentage inhibition of ligand binding, Adrenergic α1B / Percentage inhibition of ligand binding, Adrenergic α1B (0.1 μM): 0.1 µM
T2 construct: rat adrenergic α1B receptor obtained from Wistar Rat liver; from tissue; host or cells: Wistar rat liver
T2 sequence (P15823 1-515): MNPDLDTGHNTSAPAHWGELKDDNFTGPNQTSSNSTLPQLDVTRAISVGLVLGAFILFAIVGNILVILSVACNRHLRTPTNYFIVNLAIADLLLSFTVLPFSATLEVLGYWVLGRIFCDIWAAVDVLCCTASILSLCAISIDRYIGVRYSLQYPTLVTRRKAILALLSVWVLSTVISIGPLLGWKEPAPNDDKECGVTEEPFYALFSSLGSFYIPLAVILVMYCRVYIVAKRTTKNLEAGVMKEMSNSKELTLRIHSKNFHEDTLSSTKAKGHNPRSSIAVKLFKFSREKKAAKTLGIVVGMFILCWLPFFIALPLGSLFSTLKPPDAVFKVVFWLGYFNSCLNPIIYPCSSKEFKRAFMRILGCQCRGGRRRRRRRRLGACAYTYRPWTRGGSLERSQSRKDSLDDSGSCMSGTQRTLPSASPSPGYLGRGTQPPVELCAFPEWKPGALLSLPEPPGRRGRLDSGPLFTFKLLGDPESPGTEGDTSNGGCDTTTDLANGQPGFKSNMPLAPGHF
Procedure, shortened: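 Specific binding, taken as total minus that remaining with 10 μM phentolamine, is measured after filtration and counting. Rat liver receptor preparation and 0.25 nM [3H]prazosin are incubated with compound in 50 mM Tris-HCl (pH 7.4, 0.5 mM EDTA) at 25° C for 60 min. Activity is reported as percent inhibition.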

[3] = target: T3, human recombinant adrenergic α2B receptor (Homo sapiens, UniProt P18089); test: Radioligand binding, adrenergic α2B ([3H]Rauwolscine); conditions: for Ki: read-out: Ki α2B
T3 construct: expressed in transfected cells; host or cells: CHO-K1
T3 sequence (P18089 1-450): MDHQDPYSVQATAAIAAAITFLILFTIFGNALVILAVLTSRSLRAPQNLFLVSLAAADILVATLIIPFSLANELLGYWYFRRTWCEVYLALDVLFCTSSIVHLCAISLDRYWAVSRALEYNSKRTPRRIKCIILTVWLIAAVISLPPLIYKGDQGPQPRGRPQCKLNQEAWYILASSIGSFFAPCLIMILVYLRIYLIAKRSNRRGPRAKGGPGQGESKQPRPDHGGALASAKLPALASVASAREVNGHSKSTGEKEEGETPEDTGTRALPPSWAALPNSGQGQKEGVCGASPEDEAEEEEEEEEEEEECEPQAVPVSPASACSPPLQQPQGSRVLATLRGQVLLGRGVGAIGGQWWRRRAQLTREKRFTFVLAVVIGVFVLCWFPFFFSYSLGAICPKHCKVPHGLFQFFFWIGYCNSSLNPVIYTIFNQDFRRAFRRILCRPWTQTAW
Procedure, shortened: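 Membranes from CHO-K1 cells expressing human recombinant α2B, in 50 mM Tris-HCl pH 7.4, 12.5 mM MgCl2, 1 mM EDTA, 0.2% BSA, incubated with compound and 2.5 nM [3H]Rauwolscine, 60 min, 25 °C.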

[4] = compound at 0.1 μM, [3H]MK-912, repeat assays, each datapoint shown
[5] = compound at 0.1 μM, [3H]Prazosin, repeat assays, each datapoint shown
[6] = compound at 0.03 μM, [3H]Rauwolscine, repeat assays, each datapoint shown, 0.03 µM
[7] = compound at 0.1 μM, [3H]MK-912, repeat datapoints each shown
[8] = read-out: Percentage inhibition of ligand binding, Adrenergic α2A (0.1 μM), compound at 0.1 μM, [3H]MK-912, repeat datapoints each shown
[9] = compound at 0.1 μM, [3H]Prazosin, repeat datapoints each shown
[10] = read-out: Percentage inhibition of ligand binding, Adrenergic α1B (0.1 μM), compound at 0.1 μM, [3H]Prazosin, repeat datapoints each shown
[11] = compound at 0.03 μM, [3H]Rauwolscine, repeat datapoints each shown, 0.03 µM
[12] = read-out: Percentage inhibition of ligand binding, Adrenergic α2B (0.03 μM), compound at 0.03 μM, [3H]Rauwolscine, repeat datapoints each shown
[13] = 0.1 μM compound, read-out: Percentage inhibition of ligand binding, Adrenergic α2A
[14] = 0.1 μM compound, read-out: Percentage inhibition of ligand binding, Adrenergic α1B
[15] = 0.03 μM compound, read-out: Percentage inhibition of ligand binding, Adrenergic α2B

Percentage inhibition of ligand binding, Adrenergic α2A [1, 4]: −1% | Percentage inhibition of ligand binding, Adrenergic α1B [2, 5]: 5% | Percentage inhibition of ligand binding, Adrenergic α2B [3, 6]: −2%
SMILES: Cc1ccc2c(c1)c1c(n2CC(O)c2cccnc2)CCN(CCO)C1 (single isomer, unassigned) [21a]

Ki [1]: 1.21 nM | Percentage inhibition of ligand binding, Adrenergic α2A (0.1 μM) [1, 7]: 98% | inhibition at 0.03 µM ([1]; read-out: Percentage inhibition of ligand binding, Adrenergic α2A (0.03 μM), compound at 0.03 μM, [3H]MK-912, repeat datapoints each shown): 89% | inhibition at 0.1 µM [1, 8]: 97% | Percentage inhibition of ligand binding, Adrenergic α1B (0.1 μM) [2, 9]: 102% | inhibition at 0.03 µM ([2]; read-out: Percentage inhibition of ligand binding, Adrenergic α1B (0.03 μM), compound at 0.03 μM, [3H]Prazosin, repeat datapoints each shown): 89% | inhibition at 0.1 µM [2, 10]: 97% | Percentage inhibition of ligand binding, Adrenergic α2B (0.03 μM) [3, 11]: 106% | Ki [3]: 0.16 nM | inhibition at 0.03 µM [3, 12]: 103%
SMILES: Cc1cc(C)c2c(c1)c1c(n2CC(O)c2ccncc2)CCN2CCCC12 (single isomer, unassigned) [II-125b, 2-(8,10-dimethyl-2,3,5,6-tetrahydro-1H-indolizino[7,8-b]indol-7(11cH)-yl)-1-(pyridin-4-yl)ethanol]

Percentage inhibition of ligand binding, Adrenergic α2A [1, 4]: 9% | Percentage inhibition of ligand binding, Adrenergic α1B [2, 5]: 62% | Percentage inhibition of ligand binding, Adrenergic α2B [3, 6]: 27%
SMILES: Cc1ccc2c(c1)c1c(n2CC(C)(O)c2ccncc2)CN(C)CC1 (single isomer, unassigned) [19b, 1-(2,6-dimethyl-1,2,3,4-tetrahydro-β-carbolin-9-yl)-2-pyridin-4-yl-propan-2-ol]

Percentage inhibition of ligand binding, Adrenergic α2A ([1]; 0.1 μM compound): 11% | Percentage inhibition of ligand binding, Adrenergic α1B ([2]; 0.1 μM compound): 18% | Percentage inhibition of ligand binding, Adrenergic α2B ([3]; 0.03 μM compound, 0.03 µM): 65%
SMILES: CNC(Cn1c2c(c3cc(C)ccc31)CN(C)CC2)c1ccc(F)cc1 (stereo not drawn) [II-12, 2-(2,8-dimethyl-3,4-dihydro-1H-pyrido[4,3-b]indol-5(2H)-yl)-1-(4-fluorophenyl)-N-methyl ethanamine]

Percentage inhibition of ligand binding, Adrenergic α2A (0.1 μM) [1, 7]: 2% | Percentage inhibition of ligand binding, Adrenergic α1B (0.1 μM) [2, 9]: 12% | Percentage inhibition of ligand binding, Adrenergic α2B (0.03 μM) [3, 11]: 16%
SMILES: Cc1cnc2c(c1)c1c(n2CCc2ccncc2)CCN2CCCC12 (single isomer, unassigned) [II-244b, 9-methyl-6-(2-pyridin-4-yl-ethyl)-2,3,4,5,6,10c-hexahydro-1H-3a,6,7-triaza-cyclopenta[c]fluorene]

Percentage inhibition of ligand binding, Adrenergic α2A (0.1 μM) [1, 7]: −2% | Percentage inhibition of ligand binding, Adrenergic α1B (0.1 μM) [2, 9]: 37% | Percentage inhibition of ligand binding, Adrenergic α2B (0.03 μM) [3, 11]: 49%
SMILES: Cc1ccc2c(c1)c1c(n2CC(O)c2ccc(C#N)nc2)CCN(C)C1 (stereo not drawn) [compound 140, 5-[2-(2,8-dimethyl-1,2,3,4-tetrahydro-pyrido[4,3-b]indol-5-yl)-1-hydroxy-ethyl]-pyridine-2-carbonitrile]

inhibition at 0.1 µM [1, 13]: 0% | inhibition at 0.1 µM [2, 14]: 7% | inhibition at 0.03 µM [3, 15]: 59%
SMILES: OC(Cn1c2c(c3cccnc31)C1CCCN1CC2)c1ccncc1 (stereo not drawn) [II-79]

inhibition at 0.1 µM [1, 13]: 9% | inhibition at 0.1 µM [2, 14]: 11% | inhibition at 0.03 µM [3, 15]: 54%
SMILES: CN1CCc2c(c3cc(CO)ccc3n2CC(O)c2ccncc2)C1 (stereo not drawn) [II-60, 2-(8-hydroxymethyl-2-methyl-1,2,3,4-tetrahydro-pyrido[4,3-b]indol-5-yl)-1-pyridin-4-yl-ethanol]

inhibition at 0.1 µM ([1]; compound at 0.1 μM, [3H]MK-912, repeat assays, each datapoint shown, read-out: Percentage inhibition of ligand binding, Adrenergic α2A): 11% | inhibition at 0.1 µM ([2]; compound at 0.1 μM, [3H]Prazosin, repeat assays, each datapoint shown, read-out: Percentage inhibition of ligand binding, Adrenergic α1B): 11% | inhibition at 0.03 µM ([3]; compound at 0.03 μM, [3H]Rauwolscine, repeat assays, each datapoint shown, read-out: Percentage inhibition of ligand binding, Adrenergic α2B): 9%
SMILES: Cc1ccc2c(c1)c1c(n2CC(O)c2ccncc2)C(C)(C)CN(C)C1 (stereo not drawn) [compound 71, 1-pyridin-4-yl-2-(2,4,4,8-tetramethyl-1,2,3,4-tetrahydro-pyrido[4,3-b]indol-5-yl)-ethanol]

Percentage inhibition of ligand binding, Adrenergic α2A ([1]; 0.1 μM compound): 43% | Percentage inhibition of ligand binding, Adrenergic α1B ([2]; 0.1 μM compound): 76% | Percentage inhibition of ligand binding, Adrenergic α2B ([3]; 0.03 μM compound, 0.03 µM): 89%
SMILES: Cc1ccc2c(c1)c1c(n2CC(N)c2ccc(F)cc2)CCN(C)C1 (single isomer, unassigned) [II-11b, 2-(2,8-dimethyl-3,4-dihydro-1H-pyrido[4,3-b]indol-5(2H)-yl)-1-(4-fluorophenyl)ethanamine]

inhibition at 0.1 µM [1, 13]: 5% | inhibition at 0.1 µM [2, 14]: 12% | inhibition at 0.03 µM [3, 15]: 17%
SMILES: CN1CCc2c(c3cc(C(C)(C)C)ccc3n2CC(O)c2ccncc2)C1 (stereo not drawn) [II-68, 2-(8-tert-butyl-2-methyl-1,2,3,4-tetrahydro-pyrido[4,3-b]indol-5-yl)-1-pyridin-4-yl-ethanol]

Percentage inhibition of ligand binding, Adrenergic α2A (0.1 μM) [1, 7]: 7% | Percentage inhibition of ligand binding, Adrenergic α1B (0.1 μM) [2, 9]: 4% | Percentage inhibition of ligand binding, Adrenergic α2B (0.03 μM) [3, 11]: 4%
SMILES: CC(O)(Cn1c2c(c3cc(Cl)ccc31)CNCC2)c1cccnc1 (single isomer, unassigned) [175b]

Percentage inhibition of ligand binding, Adrenergic α2A (0.1 μM) [1, 7]: −5% | Percentage inhibition of ligand binding, Adrenergic α1B (0.1 μM) [2, 9]: 25% | Percentage inhibition of ligand binding, Adrenergic α2B (0.03 μM) [3, 11]: 70%
SMILES: Cc1ccc2c(c1)c1c(n2CC(OC(=O)N(C)C)c2ccncc2)CCN(C)C1 (single isomer, unassigned) [141a, N,N-dimethyl-carbamic acid 2-(2,8-dimethyl-1,2,3,4-tetrahydro-pyrido[4,3-b]indol-5-yl)-1-pyridin-4-yl-ethyl ester]

inhibition at 0.1 µM [1, 8]: -4% | inhibition at 0.1 µM [2, 10]: 5% | inhibition at 0.03 µM [3, 12]: 23%
SMILES: Cc1ccc2c(c1)c1c(n2CC(C)(O)c2cnco2)CCN(C)C1 (stereo not drawn) [II-142, 1-(1,2,3,4-tetrahydro-2,8-dimethylpyrido[4,3-b]indol-5-yl)-2-(oxazol-5-yl)propan-2-ol]

inhibition at 0.1 µM [1, 8]: 109% | inhibition at 0.1 µM [2, 10]: 94% | inhibition at 0.03 µM [3, 12]: 105%
SMILES: Cc1ccc2c(c1)c1c(n2CC(N=[N+]=[N-])c2ccc(F)cc2)CCN2CCCC12 (stereo not drawn) [V-23, 7-(2-azido-2-(4-fluorophenyl)ethyl)-10-methyl-2,3,5,6,7,11c-hexahydro-1H-indolizino[7,8-b]indole]

Ki [1]: 3710 nM | Percentage inhibition of ligand binding, Adrenergic α1B [2, 5]: 6% and 16% | Percentage inhibition of ligand binding, Adrenergic α2B [3, 6]: 30% and 36% | Percentage inhibition of ligand binding, Adrenergic α2B ([3]; compound at 0.1 μM, [3H]Rauwolscine, repeat assays, each datapoint shown, 0.1 µM): 48% | Ki [3]: 43.4 nM
SMILES: Cc1ccc2c(c1)c1c(n2CC(N)c2ccncc2)CCN(C)C1 (single isomer, unassigned) [27b, 2-(1,2,3,4-tetrahydro-2,8-dimethylpyrido[4,3-b]indol-5-yl)-1-(pyridin-4-yl)ethanamine]
